Test results from patent US12180226B2, “Spirotricycle RIPK1 inhibitors and methods of uses thereof” (Merck Sharp & Dohme LLC, priority 2021, dated 2024).
Where a name gives a salt, the structure may show the parent alone.

These molecules were tested against RIPK1 (recombinant GST-RIPK1 kinase domain, residues 1-327) (Homo sapiens (Human), UniProt Q13546) (assay: RIPK1-ADP-Glo Enzymatic Assay). Details: ADP-Glo; 25 nM GST-RIPK1, 300 μM ATP; assay lower limit ~25 nM; read-out: RIPK1 V0 Ec50.
Format: biochemical
Summary of the method: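 Inhibition of ADP formation was measured after compound and enzyme (25 nM) were pre-incubated for 30 minutes at ambient temperature and the kinase reaction ran for 150 minutes at 300 μM ATP with dephosphorylated MBP substrate. EC50 values come from ten-point curves fitted non-linearly.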

RIPK1 (recombinant GST-RIPK1 kinase domain, residues 1-327), sequence (Q13546 1-327): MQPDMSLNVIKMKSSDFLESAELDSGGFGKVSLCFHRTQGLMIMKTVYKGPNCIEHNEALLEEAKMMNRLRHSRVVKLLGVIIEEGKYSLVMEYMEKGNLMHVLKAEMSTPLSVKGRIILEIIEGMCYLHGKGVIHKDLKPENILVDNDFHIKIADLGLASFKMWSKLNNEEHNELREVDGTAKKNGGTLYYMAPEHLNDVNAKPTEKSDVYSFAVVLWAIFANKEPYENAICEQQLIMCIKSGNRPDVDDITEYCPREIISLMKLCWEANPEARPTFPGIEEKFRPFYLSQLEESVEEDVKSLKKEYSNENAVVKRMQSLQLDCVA

EC50	SMILES
34.5 nM	O=C1N2[C@@H](CC[C@H]2c2ccccc2F)OC12CN(c1cc(-c3ccccc3)no1)C2 [Example 11.35, (5′S,7a′R)-5′-(2-fluorophenyl)-1-(3-phenyl-1,2-oxazol-5-yl)tetrahydro-3′H-spiro[azetidine-3,2′-pyrrolo[2,1-b][1,3]oxazol]-3′-one]
< 25 nM	O=C(c1ccccc1)N1CCC2(O[C@@H]3CC[C@@H](c4ccccc4)N3C2=O)C(F)C1 (single isomer, unassigned) [Example 2.3, (3[S or R],4[R or S], 5′S,7a′R)-1-benzoyl-3-fluoro-5′-phenyltetrahydro-3′H-spiro[piperidine-4,2′-pyrrolo[2,1-b]oxazol]-3′-one]
< 25 nM	O=C1N2[C@@H](CC[C@H]2c2cc(F)cc(F)c2)OC12CCN(c1cccc3ncnn13)CC2 [Example 13.2, (5′S,7a′R)-1-([1,2,4]triazolo[1,5-a]pyridin-5-yl)-5′-(3,5-difluorophenyl)tetrahydro-3′H-spiro[piperidine-4,2′-pyrrolo[2,1-b]oxazol]-3′-one, TFA salt]
26.1 nM	O=C(c1ccccc1)N1CCC2(CC1)O[C@@H]1CC[C@@H](c3ccc4sccc4c3)N1C2=O [Example 17.2, (5′S,7a′R)-5′-(benzo[b]thiophen-5-yl)-1-benzoyltetrahydro-3′H-spiro[piperidine-4,2′-pyrrolo[2,1-b]oxazol]-3′-one]
24.6 nM	Cc1cnn(-c2cc(N3CCC4(CC3)O[C@@H]3CC[C@@H](c5ccccc5)N3C4=O)ncn2)c1 [Example 4.26, (5′S,7a′R)-1-[6-(4-methyl-1H-pyrazol-1-yl)pyrimidin-4-yl]-5′-phenyltetrahydro-3′H-spiro[piperidine-4,2′-pyrrolo[2,1-b] [1,3]oxazol]-3′-one]
35.6 nM	N#Cc1cc(N2CCC3(CC2)O[C@@H]2CC[C@@H](c4cccc(F)c4)N2C3=O)ncn1 [Example 4.122, 6-[(5′S,7a′R)-5′-(3-fluorophenyl)-3′-oxotetrahydro-1H,3′H-spiro[piperidine-4,2′-pyrrolo[2,1-b] [1,3]oxazol]-1-yl]pyrimidine-4-carbonitrile]
34.2 nM	O=C(c1cc(F)cc(F)c1)N1CCC2(CC1)O[C@@H]1CC[C@@H](c3cc(F)cc(F)c3)N1C2=O [Example 6.48, (5′S,7a′R)-1-(3,5-difluorobenzene-1-carbonyl)-5′-(3,5-difluorophenyl)tetra-hydro-3′H-spiro [piperidine-4,2′-pyrrolo[2,1-b][1,3]oxazol]-3′-one]
< 25 nM	O=C(c1cc(F)c(F)cc1F)N1CCC2(CC1)O[C@@H]1CC[C@@H](c3ccccc3)N1C2=O [Example 5.10, (5′S,7a′R)-5′-phenyl-1-(2,4,5-trifluorobenzene-1-carbonyl)tetrahydro-3′H-spiro[piperidine-4,2′-pyrrolo[2,1-b][1,3]oxazol]-3′-one]
92.2 nM	CC1(NC(=O)c2nc(N3CCC4(CC3)O[C@@H]3CC[C@@H](c5cc(F)cc(F)c5)N3C4=O)ncc2F)CC1 [Example 7.11, 2-[(5′S,7a′R)-5′-(3,5-difluorophenyl)-3′-oxotetrahydro-1H,3′H-spiro[piperidine-4,2′-pyrrolo[2,1-b][1,3]oxazol]-1-yl]-5-fluoro-N-(1-methyl-cyclopropyl)pyrimidine-4-carboxamide]
< 25 nM	N#Cc1cc(C(=O)N2CCC3(CC2)O[C@@H]2CC[C@@H](c4cccc(F)c4)N2C3=O)ccc1F [Example 6.113, 2-fluoro-5-[(5′S,7a′R)-5′-(3-fluorophenyl)-3′-oxotetrahydro-1H,3′H-spiro[piperidine-4,2′-pyrrolo[2,1-b][1,3]-oxazole]-1-carbonyl] benzonitrile]
< 25 nM	N#CC1(c2cccc(C(=O)N3CCC4(CC3)O[C@@H]3CC[C@@H](c5cc(F)cc(F)c5)N3C4=O)c2)CC1 [Example 6.71, 1-{3-[(5′S,7a′R)-5′-(3,5-difluorophenyl)-3′-oxotetrahydro-1H,3′H-spiro[piperi-dine-4,2′-pyrrolo-[2,1-b][1,3]oxazole]-1-carbonyl]phenyl} cyclopropane-1-car-bonitrile]
36.6 nM	Cc1nc(N2CCC3(CC2)O[C@@H]2CC[C@@H](c4ccccc4)N2C3=O)ncc1-c1ccnn1C [Example 21.8, (5′S,7a′R)-1-[4-methyl-5-(1-methyl-1H-pyrazol-5-yl)pyrimidin-2-yl]-5′-phenyltetrahydro-3′H-spiro[piperidine-4,2′-pyrrolo[2,1-b][1,3]oxazol]-3′-one]
26.9 nM	O=C1N2[C@@H](CC[C@H]2c2ccccc2)OC12CCN(c1cc(OC3CCC3)ccn1)CC2 [Example 11.20, (5′S,7a′R)-1-[4-(cyclobutyloxy)pyridin-2-yl]-5′-phenyltetrahydro-3′H-spiro[piperidine-4,2′-pyrrolo[2,1-b][1,3]oxazol]-3′-one]
< 25 nM	O=C1N2[C@@H](CC[C@H]2c2ccccc2)OC12CCN(c1cc(-c3ccccc3)ncn1)CC2 [Example 4.32, (5′S,7a′R)-5′-phenyl-1-(6-phenylpyrimidin-4-yl)tetrahydro-3′H-spiro[piperidine-4,2′-pyrrolo[2,1-b] [1,3]oxazol]-3′-one]
< 25 nM	CC1CN(c2ncnc3ccnn23)CCC12O[C@@H]1CC[C@@H](c3cc(F)cc(F)c3)N1C2=O (stereo partly drawn) [Example 4.264, (5′S,7a′R)-5′-(3,5-difluorophenyl)-3-methyl-1-(pyrazolo[1,5-a] [1,3,5]triazin-4-yl)tetrahydro-3′H-spiro[piperidine-4,2′-pyrrolo[2,1-b] [1,3]oxazol]-3′-one]
< 25 nM	O=C(c1ccn2ccccc12)N1CCC2(CC1)O[C@@H]1CC[C@@H](c3cc(F)cc(F)c3)N1C2=O [Example 5.68, (5′S,7a′R)-5′-(3,5-difluoro-phenyl)-1-(indolizine-1-carbonyl)tetrahydro-3′H-spiro[piperidine-4,2′-pyrrolo[2,1-b]oxazol]-3′-one]
< 25 nM	COc1ncnc(N2CCC3(CC2)O[C@@H]2CC[C@@H](c4ccccc4)N2C3=O)c1F [Example 11.28, (5′S,7a′R)-1-(5-fluoro-6-methoxypyrimidin-4-yl)-5′-phenyltetrahydro-3′H-spiro[piperidine-4,2′-pyrrolo[2,1-b][1,3]oxazol]-3′-one]
339 nM	O=C1N2[C@@H](CC[C@H]2c2cc(F)cc(F)c2)OC12CCN(c1nnc3cccnn13)CC2 [Example 13.9, (5′S,7a′R)-1-([1,2,4]triazolo[4,3-b]pyridazin-3-yl)-5′-(3,5-difluorophenyl)tetrahydro-3′H-spiro[piperidine-4,2′-pyrrolo[2,1-b]oxazol]-3′-one, TFA salt]
102 nM	O=C(c1ccccc1)N1CCC2(CC1)C[C@@H]1OC[C@@H](c3ccccc3)N1C2=O [Example 7.3, (3′R,7a′S)-1-(benzenecarbonyl)-3′-phenyltetrahydro-5′H-spiro[piperidine-4,6′-pyrrolo[2,1-b][1,3]oxazol]-5′-one]
< 25 nM	N#Cc1cccc(C(=O)N2CCC3(CC2)O[C@@H]2CC[C@@H](c4cccc(F)c4)N2C3=O)c1 [Example 6.115, 3-[(5′S,7a′R)-5′-(3-fluorophenyl)-3′-oxo-tetrahydro-1H,3′H-spiro[piperidine-4,2′-pyrrolo[2,1-b][1,3]-oxazole]-1-carbonyl] benzonitrile]
240 nM	N#Cc1ccc(N2CCC3(CC2)O[C@@H]2CC[C@@H](c4cc(F)cc(F)c4)N2C3=O)nn1 [Example 4.100, 6-((5′S,7a′R)-5′-(3,5-difluorophenyl)-3′-oxotetrahydro-3′H-spiro[piperidine-4,2′-pyrrolo[2,1-b]oxazol]-1-yl)pyridazine-3-carbonitrile]
< 25 nM	O=C(c1cccc(N2CCOCC2)c1)N1CCC2(CC1)O[C@@H]1CC[C@@H](c3cc(F)cc(F)c3)N1C2=O [Example 6.47, (5′S,7a′R)-5′-(3,5-difluorophenyl)-1-[3-(morpholin-4-yl)-benzene-1-carbonyl]-tetrahydro-3′H-spiro [piperidine-4,2′-pyrrolo[2,1-b][1,3]oxazol]-3′-one]
53.4 nM	Cc1nc(N2CCC3(CC2)O[C@@H]2CC[C@@H](c4cc(F)cc(F)c4)N2C3=O)ncc1F [Example 4.61, (5′S,7a′R)-5′-(3,5-difluorophenyl)-1-(5-fluoro-4-methylpyrimidin-2-yl)tetrahydro-3′H-spiro[piperidine-4,2′-pyrrolo[2,1-b] [1,3]oxazol]-3′-one]
34.4 nM	O=C(c1ccccc1)N1CCC2(CC1)O[C@@H]1CC[C@@H](c3cnccn3)N1C2=O [Example 17.1, (5′S,7a′R)-1-benzoyl-5′-(pyrazin-2-yl)tetrahydro-3′H-spiro[piperidine-4,2′-pyrrolo[2,1-b]oxazol]-3′-one, TFA]
< 25 nM	Cc1cc(N2CCC3(CC2)O[C@@H]2CC[C@@H](c4ccccc4)N2C3=O)nc(C#N)n1 [Example 4.2, 4-methyl-6-[(5′S,7a′R)-3′-oxo-5′-phenyltetrahydro-1H,3′H-spiro[piperidine-4,2′-pyrrolo[2,1-b] [1,3]oxazol]-1-yl]pyrimidine-2-carbonitrile]
67.7 nM	O=C1N2[C@@H](CC[C@H]2c2ccccc2)OC12CCN(c1ccn(-c3cnccn3)n1)CC2 [Example 11.5, (5′S,7a′R)-5′-phenyl-1-[1-(pyrazin-2-yl)-1H-pyrazol-3-yl]tetrahydro-3′H-spiro[piperidine-4,2′-pyrrolo[2,1-b][1,3]oxazol]-3′-one]
< 25 nM	O=C(c1cc(Cl)ccc1F)N1CCC2(CC1)O[C@@H]1CC[C@@H](c3ccccc3F)N1C2=O [Example 1.14, (5′S,7a′R)-1-(5-chloro-2-fluorobenzoyl)-5′-(2-fluorophenyl)tetrahydro-3′H-spiro[piperidine-4,2′-pyrrolo[2,1-b]oxazol]-3′-one]
64.8 nM	CCc1cc(C(=O)N2CCC3(CC2)O[C@@H]2CC[C@@H](c4cc(F)cc(F)c4)N2C3=O)no1 [Example 6.62, (5′S,7a′R)-5′-(3,5-difluorophenyl)-1-(5-ethyl-1,2-oxazole-3-carbonyl)tetrahydro-3′H-spiro[piperidine-4,2′-pyrrolo[2,1-b] [1,3]oxazol]-3′-one]
